Article PMC5225183, “Fingerprinting of neurotoxic compounds using a mouse embryonic stem cell dual luminescence reporter assay” (Archives of Toxicology, 2016)

Legend:
[1] = test system: undifferentiated pluripotent stem cells (ESCs); assay: Dual luminescence reporter test system, undifferentiated ESCs (readout not separated); type: cell-based, mouse; conditions: for In vitro EC20 in ESC: in vitro toxicity data expressed as EC20; for effect on promoter activities in undifferentiated cells: non-cytotoxic concentrations
Source text: (§1) Fig. 1 Synopsis of experimental protocols. The impact of compounds on neural promoter activity (FLuc, Firefly Luciferase under the control of the Tα1 promoter), general promoter activity (RLuc, Renilla Luciferase under the control of the EF1α promoter), and amount of DNA (PI, propidium iodide fluorescence in cell homogenates) was investigated in undifferentiated mouse embryonic pluripotent stem cells (ESCs) and on ESC-derived neurons. Arrows indicate the time of measurement of the three parameters. a Protocol for testing compounds effects on ESCs. CGR8-2Luc cells were plated on gelatin-coated 96-well plates in maintenance medium (BHK21 medium containing 10 % FCS, L-glutamine, NEAA, P/S, and LIF). Twenty-four hours later, cells were exposed to compounds for forty-eight hours. b Protocol for testing compounds on ESC-derived neurons. CGR8-2Luc cells were co-cultured with MS5 cells to induce neural differentiation in DMEM medium containing 15 % KO-serum, NEAA, β-mercaptoethanol, and P/S. On day 5, cells were detached and seeded on polyornithine-coated plates in DMEM medium containing N2 supplement, bFGF, and P/S; compound exposure was from day 6 to day 8
(§2) To test compounds on ESC-derived neurons, neuronal differentiation was carried out as previously described (Suter et al. [2009]; Xu et al. [2014]). Briefly, CGR8-2Luc cells were seeded on irradiated bone marrow-derived stromal MS5 cells and cultivated for 4 days in DMEM medium containing 15 % Knock-out™ Serum Replacement, non-essential amino acids, beta-mercaptoethanol, and penicillin/streptomycin. At day 5, cells were then re-plated (3 × 10^5 cells/cm^2) on polyornithine-coated 96-well plates in N2 medium containing DMEM, N2 supplement, penicillin/streptomycin, and 10 ng/ml basic human fibroblast growth factor (bFGF) (Invitrogen). […] To assess toxicity of compounds on undifferentiated pluripotent stem cells (ESCs), CGR8-2Luc cells were plated at 45,000 cells/cm^2 on 0.1 % gelatin-coated dishes in BHK21 medium, supplemented with 10 % fetal calf serum, L-glutamine, non-essential amino acids, penicillin/streptomycin, and leukemia inhibitory factor (LIF). After 24 h, compounds were added and incubated for 48 h, before luciferase expression and PI fluorescence were analyzed. In all experiments, methylmercury was used as a positive control at a concentration of 5 µM.
(§3) Luciferase activities were measured with a Dual-Luciferase™ Reporter system kit. CGR8-2Luc ES cells were lysed in 96-well plates according to the manufacturer’s instructions. Luminescence measurements were performed on a Fluostar Optima reader. Luminescence counts were expressed as percentage of promoter activity normalized by comparison with the control wells treated by DMSO. […] parameters were measured in homogenates of ESCs and in ESC-derived neurons: (1) FLuc, reflecting the activity of early neural promoter Tα1. FLuc increases during neuronal differentiation. Many neurotoxic compounds may affect FLuc expression, either through impact on neuronal differentiation, through changes of neuronal gene expression, or through killing of neurons.
After measurement of luciferase activity, DNA quantity was determined by PI assay, as previously described (Xu et al. [2014]). PI was added to cell homogenates after the luciferase test, at a final concentration of 50 µg/ml and incubated for 2 h. After incubation, fluorescence intensity was measured on a Flexstation 3 microplate reader (Excitation: 544 nm ± 15 nm; Emission: 620 nm ± 15 nm). Results are expressed as percentage of control. Propidium iodide (PI) measures total DNA content as an approximation of the cell number.

[2] = test system: ESC-derived neurons; conditions: for In vitro EC20 in ESC-derived neurons: in vitro toxicity data expressed as EC20
Source text: as §1, §2, §3
After measurement of luciferase activity, DNA quantity was determined by PI assay, as previously described (Xu et al. [2014]). […] After incubation, fluorescence intensity was measured on a Flexstation 3 microplate reader (Excitation: 544 nm ± 15 nm; Emission: 620 nm ± 15 nm). Results are expressed as percentage of control. […]

[3] = PBPK reverse modeling of nominal equivalent concentration (NEC), rat data
Method: The lipid content and albumin concentrations of the test media N2 and BHK medium were calculated on the basis of the available information provided by the suppliers (Fig. S2A). The data on rat plasma have been adopted from (Verwei et al. [2006]). The original references are (Barber et al. [1990]) for albumin and (DeJongh et al. [1997]) for lipids. Human plasma values were taken from (Gulden and Seibert [2003]). The original data on albumin are from (Lindup [1987]) and for lipids from (Patterson et al. [1988]). Total protein concentrations were calculated based on the assumption that the protein molar mass is similar to the one of albumin (66 kDa). Albumin was assumed to represent 60 and 48 % of the total serum proteins (mg/ml) in human and rat (Baker et al. [1979]; Busher [1990]) (Fig. S2A).
(a) Developmental toxicity (DT)—inducing concentrations were extrapolated from the in vivo study reported in the document by the Australian Therapeutic Goods Administration (Australian Therapeutic Goods Administration [2014]). […] (b) Toxicokinetic parameters of abiraterone in rats were extracted from the available report from the TGA (Australian Therapeutic Goods Administration [2014]). […] (c) The nominal in vitro concentrations equivalent to the concentration used in vivo were calculated using the value of total protein concentration instead of albumin concentration. […]
(c) The nominal in vitro concentrations equivalent to the concentration used in vivo in rats and humans (Cmax and Cavg) were determined assuming only binding to the specific drug-binding proteins (albumin and/or α1-acid glycoprotein) (Fig. S2D).

[4] = test system: plasma protein; conditions: cited from earlier work; for fb,pl (plasma bound fraction): extracted from the literature (geldanamycin value assumed)
[5] = extracted from the literature; cited from earlier work

C[C@]12CC[C@H](O)CC1=CC[C@@H]1[C@@H]2CC[C@]2(C)C(c3cccnc3)=CC[C@@H]12 [Abiraterone]
In vitro EC20 in ESC [1]: 2000 nM
concentration affecting neural differentiation (decrease of neuronal and general promoter activities) ([2]; ESC-derived neurons, no change in cell number): higher than 0.5 µM
In vitro EC20 in ESC-derived neurons [2]: 700 nM
Free concentration in vivo ([3]; Cavg): 1.68e-05 nM
Total concentration in vivo (ECpl) ([3]; Cavg): 0.00401 µM
Free concentration in vivo ([3]; Cmax): 0.00013 nM
Total concentration in vivo (ECpl) ([3]; Cmax): 0.0309 µM
fb,pl (plasma bound fraction) [4]: 0.998
percentage of plasma protein binding ([4]; without relevant species differences, ref US FDA [2011]): 99.8%
Kow (octanol:water partition coefficient) [5]: 131826

Nc1ccccc1NC(=O)c1ccc(CNC(=O)OCc2cccnc2)cc1 [Entinostat]
effect on promoter activities in undifferentiated cells [1]: enhanced the activities of neuronal and/or general promoters

[Br][Hg][Br] [Mercury bromide]
concentration up to which neurons were not affected [2]: 5000 nM

COC1=C2C[C@@H](C)C[C@H](OC)[C@H](O)[C@@H](C)/C=C(\C)[C@H](OC(N)=O)[C@@H](OC)/C=C\C=C(/C)C(=O)NC(=CC1=O)C2=O [Geldanamycin]
In vitro EC20 in ESC [1]: 10 nM
In vitro EC20 in ESC-derived neurons [2]: 1 nM
Free concentration in vivo ([3]; Cmax): 8.91 nM
Total concentration in vivo (ECpl) ([3]; Cmax): 2.23 µM
fb,pl (plasma bound fraction) [4]: 0.990
Kow (octanol:water partition coefficient) [5]: 417

C/C(O)=C(\C#N)C(=O)Nc1ccc(C(F)(F)F)cc1 [Teriflunomide]
In vitro EC20 in ESC [1]: 4000 to 40000 nM
In vitro EC20 in ESC-derived neurons [2]: 10000 to 20000 nM
Free concentration in vivo ([3]; Cavg): 11.7 nM
Total concentration in vivo (ECpl) ([3]; Cavg): 5.09 µM
Free concentration in vivo ([3]; Cmax): 25.6 nM
Total concentration in vivo (ECpl) ([3]; Cmax): 11.1 µM
fb,pl (plasma bound fraction) [4]: 0.995
average bound fraction in plasma ([4]; ref Russo et al. [2013]): 99.46%
Kow (octanol:water partition coefficient) [5]: 327

O=C(/C=C/c1cccc(S(=O)(=O)Nc2ccccc2)c1)NO [Belinostat]
effect on promoter activities in undifferentiated cells [1]: enhanced the activities of neuronal and/or general promoters

CCCC(CCC)C(=O)O [Valproic acid]
effect on promoter activities in undifferentiated cells [1]: enhanced the activities of neuronal and/or general promoters
